Assay results published in the supplement of paper PMC10307832.

Legend:
Test in all cases: relative viability (nuclei count vs DMSO), 5 days (fraction); higher = more cells survive
Everolimus = compound: CO[C@H]1C[C@@H]2CC[C@@H](C)[C@@](O)(O2)C(=O)C(=O)N2CCCC[C@H]2C(=O)O[C@H]([C@H](C)C[C@@H]2CC[C@@H](OCCO)[C@H](OC)C2)CC(=O)[C@H](C)/C=C(\C)[C@@H](O)[C@@H](OC)C(=O)[C@H](C)C[C@H](C)/C=C/C=C/C=C/1C [Everolimus]
Summary of the method: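 After an overnight hold at 37 °C, lung cancer cell lines in 1536-well plates were pinned with five library-drug doses (not always all listed), each √10 from the next, on vehicle-anchored plates. The cells stayed 5 days without fresh medium, then a one-step fix, permeabilisation and Hoechst stain preceded 4× imaging and MetaXpress nuclear counts. A plate passed only with control CV under 25% and at least one doubling. Viability is the median, over plates, of treated-well nuclei relative to vehicle-well nuclei.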

Everolimus + Foretinib = compound: CO[C@H]1C[C@@H]2CC[C@@H](C)[C@@](O)(O2)C(=O)C(=O)N2CCCC[C@H]2C(=O)O[C@H]([C@H](C)C[C@@H]2CC[C@@H](OCCO)[C@H](OC)C2)CC(=O)[C@H](C)/C=C(\C)[C@@H](O)[C@@H](OC)C(=O)[C@H](C)C[C@H](C)/C=C/C=C/C=C/1C [Everolimus] + COc1cc2c(Oc3ccc(NC(=O)C4(C(=O)Nc5ccc(F)cc5)CC4)cc3F)ccnc2cc1OCCCN1CCOCC1 [Foretinib] (partner 0.25 µM)
Summary of the method: (§1)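 For relative viability, nuclei counts in treated wells were divided by those in vehicle wells. Lung cancer cell lines had been pin-tool dosed in 1536-well plates the day after seeding and cultured for 5 days, then fixed and stained in one step (final 0.05% Triton X-100, 1% formaldehyde, 1 ug/ml Hoechst) and imaged at 4×. Doses were one drug alone or a fixed anchor-drug dose plus five library-drug doses (not always all listed) in √10 steps, and values are duplicate-plate medians.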

Everolimus + OSI-027 = compound: CO[C@H]1C[C@@H]2CC[C@@H](C)[C@@](O)(O2)C(=O)C(=O)N2CCCC[C@H]2C(=O)O[C@H]([C@H](C)C[C@@H]2CC[C@@H](OCCO)[C@H](OC)C2)CC(=O)[C@H](C)/C=C(\C)[C@@H](O)[C@@H](OC)C(=O)[C@H](C)C[C@H](C)/C=C/C=C/C=C/1C [Everolimus] + COc1cccc2cc(-c3nc([C@H]4CC[C@H](C(=O)O)CC4)n4ncnc(N)c34)[nH]c12 [OSI-027] (partner 0.5 µM)
Summary of the method: as §1

Everolimus + Palbociclib = compound: CO[C@H]1C[C@@H]2CC[C@@H](C)[C@@](O)(O2)C(=O)C(=O)N2CCCC[C@H]2C(=O)O[C@H]([C@H](C)C[C@@H]2CC[C@@H](OCCO)[C@H](OC)C2)CC(=O)[C@H](C)/C=C(\C)[C@@H](O)[C@@H](OC)C(=O)[C@H](C)C[C@H](C)/C=C/C=C/C=C/1C [Everolimus] + CC(=O)c1c(C)c2cnc(Nc3ccc(N4CCNCC4)cn3)nc2n(C2CCCC2)c1=O [Palbociclib] (partner 0.5 µM)
Summary of the method: as §1

Cell Line | relative viability (Everolimus; 0.01 µM) | relative viability (Everolimus; 0.03162 µM) | relative viability (Everolimus; 0.1 µM) | relative viability (Everolimus; 0.3162 µM) | relative viability (Everolimus; 1 µM) | relative viability (Everolimus + Foretinib; first compound 0.01 µM) | relative viability (Everolimus + Foretinib; first compound 0.03162 µM) | relative viability (Everolimus + Foretinib; first compound 0.1 µM) | relative viability (Everolimus + Foretinib; first compound 0.3162 µM) | relative viability (Everolimus + Foretinib; first compound 1 µM) | relative viability (Everolimus + OSI-027; first compound 0.01 µM) | relative viability (Everolimus + OSI-027; first compound 0.03162 µM) | relative viability (Everolimus + OSI-027; first compound 0.1 µM) | relative viability (Everolimus + OSI-027; first compound 0.3162 µM) | relative viability (Everolimus + OSI-027; first compound 1 µM) | relative viability (Everolimus + Palbociclib; first compound 0.01 µM) | relative viability (Everolimus + Palbociclib; first compound 0.03162 µM) | relative viability (Everolimus + Palbociclib; first compound 0.1 µM) | relative viability (Everolimus + Palbociclib; first compound 0.3162 µM) | relative viability (Everolimus + Palbociclib; first compound 1 µM)
201T | 0.9 | 0.893 | 0.842 | 0.855 | 0.878 | 0.996 | 0.913 | 0.895 | 0.795 | 0.865 | 0.574 | 0.549 | 0.519 | 0.499 | 0.509 | 0.322 | 0.306 | 0.274 | 0.306 | 0.231
A549 | 0.602 | 0.412 | 0.371 | 0.423 | 0.399 | 0.688 | 0.421 | 0.306 | 0.393 | 0.435 |  |  |  |  |  |  |  |  |  | 
A-427 | 0.803 | 0.772 | 0.693 | 0.808 | 0.799 | 0.742 | 0.624 | 0.639 | 0.684 | 0.757 | 0.449 | 0.457 | 0.333 | 0.398 | 0.432 | 0.474 | 0.546 | 0.445 | 0.48 | 0.557
ABC-1 | 0.604 | 0.822 | 0.781 | 0.707 | 0.875 | 0.82 | 0.826 | 0.645 | 0.699 | 0.739 | 0.342 | 0.281 | 0.279 | 0.357 | 0.316 | 0.468 |  | 0.43 |  | 0.598
BEN | 0.567 | 0.358 | 0.334 | 0.46 | 0.387 | 0.336 | 0.268 | 0.277 | 0.323 | 0.35 | 0.247 | 0.292 | 0.272 | 0.253 | 0.239 | 0.442 | 0.421 | 0.443 | 0.438 | 0.463
CAL-12T | 0.643 | 0.7 | 0.476 | 0.542 | 0.604 | 0.628 | 0.686 | 0.651 | 0.792 | 0.821 | 0.221 | 0.299 | 0.25 | 0.309 | 0.296 | 0.461 | 0.236 | 0.152 | 0.217 | 0.388
COR-L23 | 0.858 | 0.942 | 0.869 | 0.88 | 0.684 | 0.942 | 0.993 | 0.871 | 0.97 | 0.959 | 0.334 | 0.352 | 0.374 | 0.419 | 0.367 | 0.224 | 0.27 | 0.233 | 0.271 | 0.218
COR-L 105 | 0.667 | 0.682 | 0.592 | 0.552 | 0.663 | 0.775 | 0.71 | 0.787 | 0.709 | 0.952 | 0.43 | 0.418 | 0.366 | 0.457 | 0.445 | 0.465 | 0.368 | 0.365 | 0.344 | 0.343
Calu-6 | 0.956 | 0.922 | 0.892 | 0.88 | 0.988 | 0.845 | 0.785 | 0.811 | 0.77 | 0.742 |  |  |  |  |  |  |  |  |  | 
ChaGo-K-1 | 0.976 | 0.95 | 0.865 | 0.899 | 0.974 | 0.903 | 0.85 | 0.884 | 0.761 | 0.805 | 0.467 | 0.445 | 0.443 | 0.504 | 0.495 | 0.798 | 0.806 | 0.802 | 0.768 | 0.914
EBC-1 | 0.415 | 0.385 | 0.41 | 0.416 | 0.408 | 0.109 | 0.108 | 0.103 | 0.133 | 0.0957 |  |  |  |  |  |  |  |  |  | 
EKVX | 0.628 | 0.687 | 0.544 | 0.541 | 0.573 | 0.582 | 0.808 | 0.428 | 0.444 | 0.555 | 0.518 | 0.427 | 0.289 | 0.358 | 0.43 |  | 0.217 | 0.188 | 0.2 | 0.237
EMC-BAC-2 | 0.689 | 0.606 | 0.55 | 0.473 | 0.565 | 0.66 | 0.564 | 0.576 | 0.643 | 0.521 | 0.288 | 0.275 | 0.274 | 0.307 | 0.283 | 0.414 | 0.376 | 0.346 | 0.357 | 0.324
EPLC-272H | 0.691 | 0.596 | 0.568 | 0.513 | 0.626 | 0.451 | 0.414 | 0.443 | 0.417 | 0.489 | 0.206 | 0.204 | 0.203 | 0.24 | 0.253 | 0.307 | 0.323 | 0.284 | 0.286 | 0.259
H3255 | 0.735 | 0.664 | 0.543 | 0.528 | 0.495 | 0.572 | 0.621 | 0.458 | 0.294 | 0.565 | 0.531 | 0.426 | 0.381 | 0.402 | 0.339 | 0.314 | 0.294 | 0.319 | 0.322 | 0.307
HARA | 0.858 | 0.999 | 0.784 | 0.87 | 0.78 | 0.754 | 0.847 |  | 0.793 | 0.845 | 0.277 | 0.345 |  | 0.282 | 0.336 | 0.242 | 0.189 | 0.218 | 0.241 | 0.169
